Test results taken from the supplement of paper PMC8671470.

Experiments:
Conditions in all cases: 72 h
KCL-22 [1] = tested on: KCL-22
How it was run: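 Fifteen myeloid leukaemia lines in RPMI 1640 were treated for 72 h at 37 °C and 5% CO2 with five tenfold doses from 1 to 10,000 nM, in duplicate. ATP luminescence was normalised to vehicle and to a positive control at 10 µM, then fitted with a four-parameter log-logistic model. The IC50 came from these fits.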

HL-60 [2] = experiment: cell viability (% survival relative to DMSO control); higher = less cytotoxic
How it was run: (§1)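 Four-parameter log-logistic fits in drc and PharmacoGx supplied area under the curve where it is given. Underlying viability came from CellTiter-Glo, normalised to DMSO and proteasome-inhibitor wells, with the proteasome inhibitor at 10 μM. HL-60 cells in RPMI 1640 plus 10% FBS had been rescreened against the full library at five tenfold concentrations of 1–10,000 nM, in duplicate on 384-well plates, with DMSO or 100 nM of one of three metabolic inhibitors, for 72 h at 37 °C, 5% CO2.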

BV-173 = experiment: cell viability (% survival relative to DMSO control, bortezomib = 0%); higher = less cytotoxic
How it was run: (§2)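 After 72 h at 37 °C with 5% CO2, cell viability in 384-well plates was measured by CellTiter-Glo luminescence. The plates held compounds pre-printed at 1, 10, 100, 1000 or 10000 nM in duplicate, and cells from 10 AML and 5 CML lines seeded at densities titrated to linear growth. Percent survival is the duplicate mean, normalised to vehicle as 100% and a 10 µM positive control as 0%.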

HEL = experiment: as above
How it was run: as §2

HL-60 [3] = experiment: as above
How it was run: as §2

K-562 = experiment: as above
How it was run: as §2

KCL-22 [4] = experiment: as above
How it was run: as §2

KG-1 = experiment: as above
How it was run: as §2

KU-812 = experiment: as above
How it was run: as §2

LAMA-84 = experiment: as above
How it was run: as §2

ML-2 = experiment: as above
How it was run: as §2

MOLM-13 = experiment: as above
How it was run: as §2

MV4-11 = experiment: as above
How it was run: as §2

Mono-Mac-6 = experiment: as above
How it was run: as §2

NOMO-1 = experiment: as above
How it was run: as §2

SHI-1 = experiment: as above
How it was run: as §2

THP-1 = experiment: as above
How it was run: as §2

HL-60 [5] = experiment: area under dose-response curve (viability, 1 nM-10 uM) (fraction (0-1)); higher = more sensitive
How it was run: as §1

O=c1[nH]c(=O)n([C@H]2C[C@H](O)[C@@H](CO)O2)cc1I [Idoxuridine]
Conditions | IC50 (cell viability) [µM]
KCL-22 [1] | 0.755

cell viability [%], HL-60 [2]
Conditions | 0.001 µM | 0.01 µM | 0.1 µM | 1 µM | 10 µM
co-treatment: AZD3965 100 nM | 94.7 | 102 | 98.5 | 97.9 | 102
co-treatment: DMSO vehicle | 99.9 | 100 | 99.7 | 94.9 | 103
co-treatment: GSK2194069 100 nM | 95.3 | 100 | 101 | 98.6 | 86.4
co-treatment: pictilisib 100 nM | 84.1 | 95.8 | 97.3 | 93.8 | 90

Conditions | area under dose-response curve, co-treatment: AZD3965 100 nM | area under dose-response curve, co-treatment: DMSO vehicle | area under dose-response curve, co-treatment: GSK2194069 100 nM | area under dose-response curve, co-treatment: pictilisib 100 nM | cell viability, 1 nM [%] | cell viability, 10 nM [%] | cell viability, 100 nM [%] | cell viability, 1000 nM [%] | cell viability, 10000 nM [%]
BV-173 | – | – | – | – | 102 | 86.7 | 97.6 | 15.6 | 1.22
HEL | – | – | – | – | 93.8 | 90.5 | 92 | 59.7 | 36.1
HL-60 [3] | – | – | – | – | 113 | 105 | 102 | 95 | 84
HL-60 [5] | < 0.0301 | < 0.0301 | < 0.0301 | < 0.0301 | – | – | – | – | –
K-562 | – | – | – | – | 85.6 | 102 | 99.3 | 73.3 | 47.1
KCL-22 [4] | – | – | – | – | 103 | 96.7 | 101 | 48.9 | 26.3
KG-1 | – | – | – | – | 101 | 108 | 105 | 84.1 | 63.3
KU-812 | – | – | – | – | 92.9 | 95.9 | 102 | 88.6 | 66.5
LAMA-84 | – | – | – | – | 102 | 88.8 | 103 | 87 | 47.1
ML-2 | – | – | – | – | 98.1 | 92.4 | 105 | 83.4 | 28.2
MOLM-13 | – | – | – | – | 116 | 91.2 | 94.1 | 83.5 | 32.1
MV4-11 | – | – | – | – | 103 | 89.2 | 92.6 | 63.6 | 21.7
Mono-Mac-6 | – | – | – | – | 96 | 91.4 | 93.5 | 76 | 52.1
NOMO-1 | – | – | – | – | 102 | 92.2 | 97.8 | 95.3 | 84.8
SHI-1 | – | – | – | – | 102 | 99.6 | 99.3 | 95.2 | 60.3
THP-1 | – | – | – | – | 95.4 | 100 | 99.6 | 104 | 90

N#Cc1ccc(C2CCCc3cncn32)cc1 (stereo not given) [Fadrozole]
Conditions | IC50 (cell viability) [µM]
KCL-22 [1] | > 10

cell viability [%], HL-60 [2]
Conditions | 0.001 µM | 0.01 µM | 0.1 µM | 1 µM | 10 µM
co-treatment: AZD3965 100 nM | 99.99 | 98.614 | 101 | 96.8 | 98.7
co-treatment: DMSO vehicle | 103 | 101 | 104 | 100 | 102.2
co-treatment: GSK2194069 100 nM | 105 | 97.3 | 101 | 112 | 100
co-treatment: pictilisib 100 nM | 103 | 101 | 113 | 113 | 107

Conditions | area under dose-response curve, co-treatment: AZD3965 100 nM | area under dose-response curve, co-treatment: DMSO vehicle | area under dose-response curve, co-treatment: GSK2194069 100 nM | area under dose-response curve, co-treatment: pictilisib 100 nM | cell viability, 1 nM [%] | cell viability, 10 nM [%] | cell viability, 100 nM [%] | cell viability, 1000 nM [%] | cell viability, 10000 nM [%]
BV-173 | – | – | – | – | 103 | 95.3 | 95 | 116 | 106
HEL | – | – | – | – | 106 | 95.1 | 93.5 | 96.9 | 111
HL-60 [3] | – | – | – | – | 108 | 91.7 | 88 | 85.9 | 99.2
HL-60 [5] | < 0.0301 | < 0.0301 | < 0.0301 | < 0.0301 | – | – | – | – | –
K-562 | – | – | – | – | 95.8 | 97.9 | 95.8 | 101 | 109
KCL-22 [4] | – | – | – | – | 115 | 92.2 | 88.6 | 82.7 | 103
KG-1 | – | – | – | – | 108 | 97.9 | 89.5 | 110 | 108
KU-812 | – | – | – | – | 95.8 | 87.3 | 92.2 | 112 | 112
LAMA-84 | – | – | – | – | 102 | 93.7 | 103 | 95.5 | 107
ML-2 | – | – | – | – | 90.5 | 90.7 | 86.2 | 107 | 109
MOLM-13 | – | – | – | – | 108 | 86.8 | 92.7 | 94.4 | 93.2
MV4-11 | – | – | – | – | 109 | 96.4 | 95.9 | 93.2 | 98.1
Mono-Mac-6 | – | – | – | – | 102 | 93.4 | 97.2 | 101 | 112
NOMO-1 | – | – | – | – | 100 | 90.2 | 93.4 | 100 | 105
SHI-1 | – | – | – | – | 113 | 95.3 | 101 | 95.8 | 102
THP-1 | – | – | – | – | 99.6 | 96.3 | 96.2 | 107 | 102

Fc1ccc(CNc2ncnc3ccc(F)cc23)cc1 [Spautin 1]
Conditions | IC50 (cell viability) [µM]
KCL-22 [1] | > 10

cell viability [%], HL-60 [2]
Conditions | 0.001 µM | 0.01 µM | 0.1 µM | 1 µM | 10 µM
co-treatment: AZD3965 100 nM | 78.7 | 99.98 | 101 | 103 | 71.3
co-treatment: DMSO vehicle | 98.11 | 97.89 | 109 | 96.7 | 78.31
co-treatment: GSK2194069 100 nM | 91.31 | 100 | 104 | 89.5 | 58
co-treatment: pictilisib 100 nM | 100 | 96.8 | 108 | 98.7 | 80.4

Conditions | area under dose-response curve, co-treatment: AZD3965 100 nM | area under dose-response curve, co-treatment: DMSO vehicle | area under dose-response curve, co-treatment: GSK2194069 100 nM | area under dose-response curve, co-treatment: pictilisib 100 nM | cell viability, 1 nM [%] | cell viability, 10 nM [%] | cell viability, 100 nM [%] | cell viability, 1000 nM [%] | cell viability, 10000 nM [%]
BV-173 | – | – | – | – | 98.3 | 96.8 | 110 | 79.7 | 35.1
HEL | – | – | – | – | 91.3 | 98.3 | 94.1 | 89.4 | 47.9
HL-60 [3] | – | – | – | – | 105 | 102 | 110 | 117 | 47.4
HL-60 [5] | < 0.0301 | 0.0409 | 0.0623 | 0.0324 | – | – | – | – | –
K-562 | – | – | – | – | 103 | 97 | 100 | 69.8 | 16.9
KCL-22 [4] | – | – | – | – | 112 | 113 | 108 | 88.6 | 61.9
KG-1 | – | – | – | – | 108 | 98.5 | 103 | 66.8 | 32.6
KU-812 | – | – | – | – | 96.8 | 96.3 | 94.5 | 62.3 | 12.6
LAMA-84 | – | – | – | – | 103 | 103 | 93.5 | 66.4 | 26.7
ML-2 | – | – | – | – | 108 | 84.7 | 97 | 87.9 | 63.2
MOLM-13 | – | – | – | – | 93.1 | 89.7 | 122 | 108 | 50.9
MV4-11 | – | – | – | – | 98.8 | 92.4 | 102 | 64.7 | 33
Mono-Mac-6 | – | – | – | – | 109 | 96.1 | 119 | 106 | 59
NOMO-1 | – | – | – | – | 103 | 102 | 110 | 97.3 | 77.1
SHI-1 | – | – | – | – | 113 | 100 | 106 | 95.9 | 62.2
THP-1 | – | – | – | – | 95.5 | 103 | 103 | 106 | 79.1
